Data: patent publication US8163804B2 (priority 2005, dated 2012)
Like-named read-outs stand apart in the source and are kept apart here.

Columns and labels:
[1] = test system: Tiger Moth (Trichoplusia ni); test: Insecticidal test on tiger moth, cabbage leaf dip, mortality after 6 days; format: in vivo; details: 6 days after treatment
Method: Insecticidal Test on Tiger Moth (Trichoplusia ni)
Cut leaves of cabbages (cultivar: shiki-kaku) were immersed in a liquid chemical which was diluted and prepared to the prescribed concentration for 30 seconds, air-dried, and then put into a plastic vessel having a diameter of 9 cm. Each of 10 second-stage insects of Trichoplusia ni was inoculated and the resulting vessel was allowed to stand in an isothermal chamber maintained at 25 degree centigrade. After 6 days from the treatment, the number of surviving insects was examined and the mortality was calculated (two replications of 10 insects per plot).

[2] = test system: Small Brown Planthopper (Laodelphax striatellus); test: Insecticidal test on small brown planthopper, sprayed rice seedlings, mortality after 6 days; format: in vivo; details: sprayed rice seedlings, 6 days after treatment; for mortality at 25 ppm: Laodelphax striatellus, 144 h
Method: Insecticidal Test on Small Brown Planthopper (Laodelphax striatellus)
A liquid chemical which was diluted and prepared to the prescribed concentration was sprayed on rice seedlings (cultivar: koshihikari), air-dried, and then 10 three-stage insects of Laodelphax striatellus were put into a glass test tube having a diameter of 3 cm and a height of 10 cm along with the seedlings. The test tube was cotton plugged. After 6 days from the treatment, the number of surviving insects was examined and the mortality was calculated (two replications of 10 insects per plot).

[3] = test system: Green Peach Aphid (Myzus persicae); format: in vivo; details: foliar spray on eggplant, 5 days after spraying
[4] = test system: Resistant Cotton Melon Aphid (Aphis gossypii); format: in vivo; details: foliar spray on cucumber, 5 days after spraying
[5] = test system: Rice Blast (Pyricularia oryzae); format: in vivo
[6] = test system: Rice Striped Stem Borer (Chilo suppressalis)
[7] = test system: Sheath Blight (Rhizoctonia solani); test: Control test on sheath blight of paddy rice, powder spray, rate of infected stumps after 30 days; format: in vivo; details: 30 days after spraying
From the text: (§1) Control Test on Common Straight Swift Butterfly (Parnara guttata) and Sheath Blight (Rhizoctonia solani) of Paddy Rice
(§2) A powder of a prescribed amount was sprayed on rice (cultivar: koshihikari) after 70 days from the transplantation (middle of May) Leaves on which Parnara guttata was parasitic before spraying were eliminated. After 20 days from spraying, the number of insects was examined for 100 stumps in each plot. Furthermore, 7 days before spraying, Rhizoctonia solani cultured on a bran medium was inoculated into the base of the plant. After 30 days from spraying, the number of infected stumps was examined for 100 stumps in each plot and the rate of infected stumps was calculated. In the Table, gai represents the amount of active ingredients (g).

[8] = test system: Common Straight Swift Butterfly (Parnara guttata); test: Control test on common straight swift butterfly of paddy rice, powder spray, number of insects after 20 days (Test Example 9); format: in vivo; details: 20 days after spraying
From the text: as §1, §2

[9] = test system: 2-spotted Spider Mite (Tetranychus urticae); test: Insecticidal test on 2-spotted spider mite, kidney bean leaf disc with eggs, hatchability of larvae after 6 days; format: in vivo; details: 6 days after spraying
Method: Insecticidal Test on 2-spotted Spider Mite (Tetranychus urticae)
A plastic cup having a diameter of 8 cm was filled with water and covered by a lid with a hole having a diameter of 1 cm. Absorbent cotton was put on the top of the lid and dropped into water from the lid such that the absorbent cotton was always in a wet state due to a capillary phenomenon. A leaf disc having a diameter of 2 cm was prepared with primary leaves of kidney beans (cultivar: Green top) and placed on the aforementioned absorbent cotton. 4 adult female insects of Tetranychus urticae were inoculated thereon. Next day, the adult female insects were removed, and then the number of insect egg was examined. A liquid chemical which was prepared to the prescribed concentration was sprayed by using a vertical sprayer. After spraying, the resulting cup was allowed to stand in an isothermal chamber maintained at 25 degree centigrade. After 6 days from spraying, the number of hatched larvae that survived on the leaf disc was examined and the hatchability of larvae was calculated (two replications of one concentration per chemical).

[10] = test system: Rice Leafroller (Cnaphalocrocis medinalis); test: Control test on rice leafroller, nursery box application of paddy rice, infected leaf rate after 50 days; format: in vivo; details: 2.5 gai/box; 50 days after transplantation
Method: (§3) Control Test on Small Brown Planthopper (Laodelphax striatellus) and Rice Leafroller (Cnaphalocrocis medinalis) on Nursery Box Application of Paddy Rice
(§4) Rice (cultivar: Nihonbare) cultured in a nursery box was treated with 50 g of a granule formulation per box, and then transplanted to the rice field. For the control effect against Laodelphax striatellus, the number of parasitic insects was examined for 30 stumps per plot after 40 days and 60 days from the transplantation. In addition, for the control effect against Cnaphalocrocis medinalis, the number of infected leaves was examined for 100 stumps per plot after 50 days from the transplantation, and the infected leaf rate was calculated. In the Table, gai represents the amount of active ingredients (g).

[11] = test system: Small Brown Planthopper (Laodelphax striatellus); test: Control test on small brown planthopper, nursery box application of paddy rice, number of parasitic insects after 40 and 60 days; format: in vivo; details: 2.5 gai/box
Method: as §3, §4

CCOc1ccc(C(C)(C)COCc2cccc(Oc3ccccc3)c2)cc1 [ethofenprox]
Mortality (%) ([1]; 3 ppm): 45%
Mortality (%) ([2]; 25 ppm): 95%
Control rate (%) ([3]; 100 ppm): 98%
Control rate (%) ([4]; 100 ppm): 75%

CCOc1ccc([Si](C)(C)CCCc2ccc(F)c(Oc3ccccc3)c2)cc1 [silafluofen]
mortality at 25 ppm ([2]; 25 ppm): 95%

spinosad
Mortality (%) ([1]; 0.1 ppm): 60%

Cc1cccc2sc3nncn3c12 [tricyclazole]
Pyricularia oryzae Control value ([5]; 2 gai/box): 95
Chilo suppressalis Mortality (%) ([6]; in vivo): 5%

N#Cc1nn(-c2c(Cl)cc(C(F)(F)F)cc2Cl)c(N)c1[S+]([O-])C(F)(F)F (centres unmarked) [fipronil]
mortality at 0.5 ppm ([1]; Trichoplusia, foliar, 144 h, 0.5 ppm): 55%

N#CCNC(=O)c1cnccc1C(F)(F)F [flonicamid]
Mortality (%) ([2]; 20 ppm): 95%
Control rate (%) ([3]; 100 ppm): 97%
Control rate (%) ([4]; 100 ppm): 97%

CC[S+]([O-])c1c(C#N)nn(-c2c(Cl)cc(C(F)(F)F)cc2Cl)c1N (centres unmarked) [ethiprole]
mortality at 25 ppm ([2]; 25 ppm): 90%
Control rate (%) ([3]; 100 ppm): 98%
Control rate (%) ([4]; 100 ppm): 96%

Cc1nn(C)c(Cl)c1C(=O)Nc1cccc2c1C(C)OC2(C)C (centres unmarked) [furametpyr]
Rate of infected stumps (%) ([7]; 20 gai/10a): 2%
Number of insects (number/100 stumps) ([8]; 20 gai/10a): 161 number/100 stumps

CC(C)Oc1cccc(NC(=O)c2ccccc2C(F)(F)F)c1 [flutolanil]
Rate of infected stumps (%) ([7]; 80 gai/10a): 2%
Number of insects (number/100 stumps) ([8]; 80 gai/10a): 153 number/100 stumps

Cc1cc(C(F)(C(F)(F)F)C(F)(F)F)cc(C)c1NC(=O)c1cccc(N(C)C(=O)c2cccc(F)c2)c1F [Compound 1219]
Mortality (%) ([1]; 0.5 ppm): 65%
Mortality (%) ([2]; 3 ppm): 10%
Hatchability of larvae (%) ([9]; 50 ppm): 80%
Control rate (%) ([3]; 3 ppm): 17%
Control rate (%) ([4]; 3 ppm): 15%

CCOC(=O)CCN(SN(C)C(=O)Oc1cccc2c1OC(C)(C)C2)C(C)C [benfuracarb]
Cnaphalocrocis medinalis Infected leaf rate (%) [10]: 1.28%
Laodelphax striatellus Number of parasitic insects/30 stumps ([11]; 40 days): 12 insects/30 stumps
Laodelphax striatellus Number of parasitic insects/30 stumps ([11]; 60 days): 31 insects/30 stumps

CC(C)OC(=O)C(C(=O)OC(C)C)=C1SCCS1 [Isoprothiolane]
Pyricularia oryzae Control value ([5]; 6 gai/box): 92
Chilo suppressalis Mortality (%) ([6]; 6 gai/box): 0%

CNC(=O)ON=C(C)SC [methomyl]
Control rate (%) ([3]; 250 ppm): 96%
Control rate (%) ([4]; 250 ppm): 10%

CCCCCCCCCCCCC1=C(OC(C)=O)C(=O)c2ccccc2C1=O [acequinocyl]
Hatchability of larvae (%) ([9]; 5 ppm): 29%

milbemectin
Hatchability of larvae (%) ([9]; 5 ppm): 18%

C[C@@H](NC(=O)C(C#N)C(C)(C)C)c1ccc(Cl)cc1Cl (some centres unmarked) [diclocymet]
Pyricularia oryzae Control value ([5]; 1.5 gai/box): 95
Chilo suppressalis Mortality (%) ([6]; 1.5 gai/box): 0%

COc1ccc(-c2ccccc2)cc1NNC(=O)OC(C)C [bifenazate]
Hatchability of larvae (%) ([9]; 5 ppm): 60%

C=CCOC1=NS(=O)(=O)c2ccccc21 [probenazole]
Pyricularia oryzae Control value ([5]; 12 gai/box): 94
Chilo suppressalis Mortality (%) ([6]; 12 gai/box): 5%
